What was measured:
[1] = Efficiency of entrapment of drugs/bioactive agents in collagen disks or particles; format: physicochemical
Method: Efficiency of entrapment of drugs/bioactive agents in the collagen disks or particles, and kinetics of drug efflux for small molecular weight drugs was determined utilizing absorption spectra (mostly in an ELISA plate reader), fluorescence emission spectra (mostly in a fluorescence plate reader), and HPLC. Half-life data was processed according to a theoretical framework previously developed for liposomes (Margalit et al., 1991), incorporated herein in its entirety) which yields the rate constant for drug efflux.

[2] = system: glioma C6 line; test: Treatment of multi-drug resistant cell lines, cell survival by MTT assay; format: cell-based, rat; conditions: 24-28 hours post-treatment
Method: (§1) FIGS. 6A-6C show results for three cell lines, C26 (FIG. 6A), HT29 (FIG. 6B) and […], in terms of response to chemotherapeutic drugs encapsulated in collagen particles. The bars represent 60-64 repeats and the error bars represent the standard deviation. Three asterisks (***) indicate p<0.001.
(§2) Cells were seeded onto 96 well plates, and the experiment was initiated at semi-confluency, usually 24 hours post seeding. For the test system, cells were given a selected dose of the drug of choice, which was entrapped in a collagen particle formulation (washed of excess free drug prior to use). The controls were given the same dose of free drug, and a dose of drug-free collagen particles at a dose similar to that of the test system. Cell survival was determined 24-28 hours post-treatment, using the MTT assay (Nutt, et al. 2000; and Larsen et al., 2000).

[3] = system: HT29 colon adenocarcimona cell line; test: as above; format: cell-based, human; conditions: 24-28 hours post-treatment
Method: as §1, §2

[4] = system: C26 colon adenocarcimona cell line; test: as above; format: cell-based, mouse; conditions: 24-28 hours post-treatment
Method: as §1, §2

[5] = Collagen Disks (1-20 mm in a diameter)
[6] = Collagen particles (0.5-10 μm in diameter)

With `O=C(N[C@H](CO)[C@H](O)c1ccc([N+](=O)[O-])cc1)C(Cl)Cl` [CAM, chloramphenicol] the “% Entrapment” value [1, 5] was 89.5 ± 1.4% and the “% Entrapment” value [1, 6] was 94.1 ± 0.8%.

In the case of `COc1cccc2c1C(=O)c1c(O)c3c(c(O)c1C2=O)C[C@@](O)(C(=O)CO)C[C@@H]3O[C@H]1C[C@H](N)[C@H](O)[C@H](C)O1` [DOX, doxorubicin], the “cell survival / response (MTT), FIGS. 6A-6C” value (shortened to “cell survival / response (MTT)”) [2] is reported as “typical for the inherent form of MDR”, the “% Entrapment” value [1, 5] is reported as 78.4 ± 2.4% and the “% Entrapment” value [1, 6] is reported as 71.9 ± 0.4%. For the same compound, the “cell survival / response (MTT)” value [3] was “typical for the inherent form of MDR” and the “cell survival / response (MTT)” value [4] was “typical for the inherent form of MDR”.

For `CO[C@@]12[C@H](COC(N)=O)C3=C(C(=O)C(C)=C(N)C3=O)N1C[C@@H]1N[C@@H]12` [MMC, Mitomycin C], the “% Entrapment” value [1, 5] was 80.2 ± 1.0% and the “% Entrapment” value [1, 6] was 67.3 ± 2.1%.

With “Insulin: high molecular weight drug entrapped in collagen particles and disks” the “% Entrapment” value [1, 5] was 89.4 ± 2.3% and the “% Entrapment” value [1, 6] was 91.2 ± 0.7%.

From US8808664B2, “Lipidated glycoprotein particles and methods of use” (Ramot at Tel-Aviv University Ltd., priority 2004, dated 2014)
